According to US7393951B2, “Antisense oligonucleotide having anticancerous activity” (Good Will Okinawa Co., Ltd., priority 2004, dated 2008):

Tests used:
[1] = Toxicity in mice after intravenous administration (body weight, symptoms); type: in vivo; settings: female mice, 20 μg per g of the body weight
Description: The toxicity of the oligo 3 was examined. Specifically, the oligo 3 was dissolved in a physiological saline so as to have a concentration of 1 mg/mL and administered intravenously into female mice (5-week-old) in a dose of 20 μg per g of the body weight. On the day of administration (Day 0) and 2, 5, 10, 12 and 14 days after the administration, the weight of each mouse was determined.
FIG. 6 is a graph showing the influence of the oligo 3 on increase of the body weight of the mouse in the case of intravenous administration in a dose of 20 μg/(body weight) g. In the graph, each datum is shown in mean±SE. Here, the data were obtained by using 7 mice for the oligo 3 and 6 mice for the control, respectively.

HeLa cells [2] = assay: Influence on DNA synthesis of cells, incorporation of [3H]-methylthymidine; type: cell-based, human; settings: for incorporation ratio of [3H]-methylthymidine into the human cancer cells to the control: HeLa, 0.1% FCS, 24 hours
Description: The influence of each oligo on DNA synthesis of cells was examined by observing the incorporation of [^3H]-methylthymidine into cells. Specifically, the cells were cultured for 24 hours in the same manner as described above, and then the culture solution was exchanged with a culture solution containing each oligo at a concentration of 5, 10 or 20 μM and 0.1% FCS. After 18 hours, 1 μCi/mL [^3H]-methylthymidine was added to the culture solution, and the cells were cultured for another 6 hours. After culture, the specific radioactivity of the cells after predetermined treatment was determined with a liquid scintillation counter.

HeLa cells [3] = assay: Influence on growth of HeLa human cancer cells, modified MTT method (WST-1 + 1-methoxy PMS); type: cell-based
Description: The influence of each oligo on cell growth was examined. Specifically, HeLa cells, which are human cancer cells in a DMEM medium containing 10% heat-inactivated fetal calf serum (FCS), were seeded at a density of 1500 cells/well in a 96-well plate. After culture for 24 hours, the culture solution was exchanged with a culture solution containing each oligo at a concentration of 10 μM and 1% FCS. The cells were cultured at 37° C. in the presence of CO2. Thereafter, the ratio of living cells [survival ratio of cells (%)] was examined over 4 days at 24-hour intervals (absorbance: 450 to 650 nm) by a modified MTT method (WST-1+1-methoxy PMS) using a cell counting kit (manufactured by DOJINDO). Here, a culture solution exchanged with a culture solution not containing any oligo was used as a control (this applies hereinafter).
Then, an experiment was conducted in a similar manner, setting the concentration of the oligo 3 in the culture solutions at 2.5, 5, 10 and 20 μM respectively, to examine the relationship between the inhibition of growth of human cancer cells and the concentration.

HeLa cells [4] = assay: Induction of cell death of human cancer cells, microscopy and Giemsa staining; type: cell-based; settings: 20 μM
Description: Further, the induction of cell death of the human cancer cells by the oligo 3 was examined. Specifically, 3,000 HeLa cells were seeded in a slide chamber. After culture for 24 hours, the culture solution was exchanged with a culture solution containing the oligo 3 at a concentration of 20 μM. […] Furthermore, 24 hours after addition of the oligo 3, the cells were washed with phosphate buffered saline (PBS) and then subjected to Giemsa staining to determine the numbers of living cells and dead cells, and the survival ratio of the cells (%) was determined from the obtained numbers of the cells. Here, the oligo 5 was used additionally as a control.

Substance: oligo 3: phosphorothioate antisense DNA oligonucleotide CCTCA, to positions 47-51 of 7SL RNA of SRP (SEQ ID NO: 1) (DNA, all phosphorothioate, methylation of C not given here)
- generation of symptoms versus control [1]: not recognized
- toxicity [1]: does not exhibit toxicity particularly
- influence on increase of the body weight versus control ([1]; Day 0 to 14): no difference between the oligo 3 and the control
- incorporation of [3H]-methylthymidine into the cells, compared among oligos 1 to 5 (HeLa cells [2]; HeLa, 5, 10 or 20 μM): suppressed to the lowest level
- incorporation ratio of [3H]-methylthymidine into the human cancer cells to the control (HeLa cells [2]; oligo 5 μM): 57.5%
- incorporation ratio of [3H]-methylthymidine into the human cancer cells to the control (HeLa cells [2]; oligo 10 μM): 32.0%
- incorporation ratio of [3H]-methylthymidine into the human cancer cells to the control (HeLa cells [2]; oligo 20 μM): 16.6%
- inhibitory effect on growth of the human cancer cells, compared among oligos 1 to 5 (HeLa cells [3]; HeLa, 10 μM, over 4 days): highest inhibitory effect
- concentration dependence of inhibition of growth of human cancer cells (HeLa cells [3]; HeLa, 2.5, 5, 10 and 20 μM): increased in proportion to the concentration
- survival ratio of the cells to the control (HeLa cells [3]; HeLa, concentration series 2.5, 5, 10 and 20 μM (concentration of these values not given), Day 1): 44.4%
- survival ratio of the cells to the control (HeLa cells [3]; HeLa, concentration series 2.5, 5, 10 and 20 μM (concentration of these values not given), Day 2): 45.1%
- survival ratio of the cells to the control (HeLa cells [3]; HeLa, concentration series 2.5, 5, 10 and 20 μM (concentration of these values not given), Day 3): 55.5%
- survival ratio of the cells to the control (HeLa cells [3]; HeLa, concentration series 2.5, 5, 10 and 20 μM (concentration of these values not given), Day 4): 63.8%
- survival ratio of the cells to the control (HeLa cells [3]; HeLa, oligo 10 μM, 1% FCS, Day 1): 49.6%
- survival ratio of the cells to the control (HeLa cells [3]; HeLa, oligo 10 μM, 1% FCS, Day 2): 62.7%
- survival ratio of the cells to the control (HeLa cells [3]; HeLa, oligo 10 μM, 1% FCS, Day 3): 71.6%
- survival ratio of the cells to the control (HeLa cells [3]; HeLa, oligo 10 μM, 1% FCS, Day 4): 71.1%
- survival ratio of the cells (living vs dead cells, Giemsa staining) (HeLa cells [4]; 24 hours after addition): 30.8%
- microscopic observation of cultured cells (HeLa cells [4]; about 18 hours after addition): a process of from shrinkage of cells to cell death was observed
